Patent EP4806899A1, “FUSED RING DERIVATIVE, PREPARATION METHOD THEREFOR AND USE THEREOF IN MEDICINE” (Shanghai Qilu Pharmaceutical Research and Development …, priority 2023, dated 2025)

Legend:
human CYP11B2 enzyme = biological target: T1, human CYP11B2 enzyme (Homo sapiens, UniProt P19099); experiment: Enzyme inhibition activity assay in G402 cells stably expressing human CYP11B2 (aldosterone production from 11-DOC, LC/MS); assay type: cell-based; conditions: 1 µM 11-DOC, 16 hours, aldosterone detected
T1 construct: the ORF of human CYP11B1 or CYP11B2 were transfected into G402 cells; expressed in transfected cells
T1 sequence (P19099 25-503): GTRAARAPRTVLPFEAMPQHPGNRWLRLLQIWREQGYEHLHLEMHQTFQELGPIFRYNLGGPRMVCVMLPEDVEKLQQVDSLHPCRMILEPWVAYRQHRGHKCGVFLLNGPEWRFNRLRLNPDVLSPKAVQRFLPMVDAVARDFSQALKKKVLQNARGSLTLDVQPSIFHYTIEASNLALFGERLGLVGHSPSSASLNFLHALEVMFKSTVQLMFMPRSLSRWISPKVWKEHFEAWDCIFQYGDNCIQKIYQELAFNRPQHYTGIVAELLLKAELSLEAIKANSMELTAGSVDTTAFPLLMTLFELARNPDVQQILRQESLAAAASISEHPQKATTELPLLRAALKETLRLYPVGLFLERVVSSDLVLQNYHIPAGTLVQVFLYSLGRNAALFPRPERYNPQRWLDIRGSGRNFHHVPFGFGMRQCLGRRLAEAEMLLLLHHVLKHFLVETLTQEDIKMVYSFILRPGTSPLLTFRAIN
Summary of the method: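 G402 cells stably expressing human CYP11B2 or CYP11B1, preincubated 1 h with inhibitor in DMEM/F12 plus 2.5% charcoal-stripped FCS, then 16 h with 1 µM 11-DOC or 1 µM 11-DC. Aldosterone or cortisol quantified by LC/MS; IC50 from four-parameter logistic fit versus uninhibited control.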

plasma hormone levels = experiment: Pharmacodynamic determination in monkeys: plasma aldosterone and cortisol after ACTH stimulation; assay type: in vivo, cynomolgus monkeys; conditions: P.O.
Procedure: Cynomolgus monkeys were used as test animals to evaluate the pharmacodynamics of multiple compounds of the present disclosure on plasma hormone levels following gavage administration (P.O.) at various doses such as 0.1 mpk (and others, e.g., 0.03 mpk, 0.1 mpk, and 0.3 mpk).
Male cynomolgus monkeys, Suzhou Xishan Zhongke Laboratory Animal Co., Ltd. Animal production license number: SCXK (Su) 2023-0001, animal use license number: SYXK (Su) 2020-0017.
Male cynomolgus monkeys were performed gavage administration (P.O.) at doses set as: 0 mpk (vehicle group, i.e., Veh group), 0.03 mpk, 0.1 mpk, and 0.3 mpk. In each group, 15 µg/kg ACTH was injected intramuscularly 1 hour after dosing. Continuous venous blood samples were collected from each group at 1 hour before administration and at multiple time points after administration. Blood samples were collected, and plasma aldosterone and its precursors, as well as plasma corticosterone and its precursors, at multiple time points were analyzed using LC/MS methods.
Venous blood samples were collected at 1-2 hours before gavage administration and at multiple time points after intramuscular injection of ACTH (adrenocorticotropic hormone). The samples were placed in EDTA-K2 tubes, centrifuged at 4 °C, 2600 g for 10 minutes to separate plasma, which was then stored at -80 °C.
• HPLC: Waters ACQUITY UPLC I-Class PLUS; • Mass spectrometry conditions: Triple Quad™ 7500 (Serial No. FA224362212) mass spectrometer; • Chromatographic column: phenomenex kinetex 2.6µm C8 100A 50 × 4.60 mm; • Mobile phase: mobile phase A was 0.5 mM ammonium fluoride solution containing 0.1% formic acid; mobile phase B was MeOH.
The data in Figs. 1, 2, 3, 4, and 5 are analyzed based on PD changes at 30 minutes after ACTH stimulation. The percentage of PD relative to the control group (Veh group) at 30 minutes after ACTH stimulation serves as the main basis for pharmacodynamic evaluation, calculated according to the following formula: [formula] where PD refers to aldosterone or cortisol. Table 8 Pharmacodynamic Evaluation of Example Compound C44 in Monkeys

[1] = 0.03 mpk, 30min after ACTH stimulation, plasma
[2] = 0.1 mpk, 30min after ACTH stimulation, plasma
[3] = 0.3 mpk, 30min after ACTH stimulation, plasma

SMILES	IC50 (human CYP11B2 enzyme)	Cortisol (plasma hormone levels; 0.03 mpk, 0h, plasma)	Aldosterone (plasma hormone levels; 0.03 mpk, 0h, plasma (Table 12))	Cortisol (plasma hormone levels; [1])	Aldosterone (plasma hormone levels; 0.03 mpk, 30min after ACTH stimulation, plasma (Table 12))	Cortisol (plasma hormone levels; 0.1 mpk, 0h, plasma)	Aldosterone (plasma hormone levels; 0.1 mpk, 0h, plasma (Table 12))	Cortisol (plasma hormone levels; [2])	Aldosterone (plasma hormone levels; 0.1 mpk, 30min after ACTH stimulation, plasma (Table 12))	Aldosterone (plasma hormone levels; 0.3 mpk (dose printed 03), 0h, plasma (Table 12))	Aldosterone (plasma hormone levels; 0.3 mpk (dose printed 03), 30min after ACTH stimulation, plasma (Table 12))	Cortisol (plasma hormone levels; 0.3 mpk, 0h, plasma)	Cortisol (plasma hormone levels; [3])	Aldosterone (plasma hormone levels; 0.03 mpk, 0h, plasma)	Aldosterone (plasma hormone levels; [1])	Aldosterone (plasma hormone levels; 0.1 mpk, 0h, plasma)	Aldosterone (plasma hormone levels; [2])	Aldosterone (plasma hormone levels; 0.3 mpk, 0h, plasma)	Aldosterone (plasma hormone levels; [3])
CCC(=O)N[C@@H]1CCOc2c(-c3ccc4c(c3)CCC(=O)N4C)cncc21 [Compound A02-P2]	12.3 nM	269.0 ng/mL	0.13 ng/mL	384.0 ng/mL	0.27 ng/mL	436.0 ng/mL	0.40 ng/mL	599.0 ng/mL	0.20 ng/mL	0.13 ng/mL	0.05 ng/mL	283.0 ng/mL	387.0 ng/mL						
[2H]C([2H])([2H])OC(=O)N[C@@H]1CCOc2c(-c3cc(F)c4c(ccc(=O)n4C)c3)cncc21 [Compound A50]	11.1 nM	358.3 ng/mL		430.0 ng/mL		282.0 ng/mL		386.0 ng/mL				304.7 ng/mL	369.7 ng/mL	0.12 ng/mL	0.22 ng/mL	0.49 ng/mL	0.12 ng/mL	0.12 ng/mL	0.06 ng/mL
